Laboratory results published in PMC5457661, “Dysregulation of lysophosphatidic acids in multiple sclerosis and autoimmune encephalomyelitis” (Acta Neuropathologica Communications, 2017).
Entries after “also recorded” stand apart in the source; their conditions may differ. Read-outs that look alike come from different tables or passages of the source.

Legend:
LPAR1, 2, 3 or 4 [1] = test: LPA receptor activation panel in COS cells with heterologous expression of LPAR1, 2, 3 or 4 plus Gα15, mock controls; assay type: cell-based, human; conditions: for LPAR activation (agonist activity): calcium transient AUC, all heterologously expressed LPARs
Method: (§1) To study the activation profile of heterologously expressed LPA receptors, COS-1 cells were seeded in 96-well plates at a density of 50.000 cells/well. Next day, they were co-transfected with plasmids containing cDNA for a calcium-sensitive bioluminescent fusion protein between aequorin and GFP [3] and plasmids containing the indicated receptor cDNA or control (empty vector, mock) together with the promiscuous Gα15 [42] at a concentration of 50 ng/well by using FuGENE 6 reagent (Promega) according to manufacturer’s instructions. Forty-eight hours later, cells were loaded with 5 μM coelenterazine h (Invitrogen) in HBSS buffer containing 1.8 mM CaCl2 and 10 mM glucose for 2 h at 37 °C. Measurements were performed by using a luminometric plate reader (Flexstation 3) for 100 s following ligand stimulation. The area under each calcium transient was calculated by using SoftMaxPro software and expressed as area under the curve (AUC). The following lipids were used for stimulation: 1-Palmitoyl-LPA (LPA16:0), 1-oleoyl-LPA (LPA18:1), 1-stearoyl-LPA (LPA18:0), 1-lineoyl-LPA (LPA18:2), 1-arachidonoyl-LPA (LPA20:4). LPA16:0 and 18:1 were from Cayman, the others from AvantiPolar Lipids.

autotaxin [2] = biological target: T1, autotaxin (Mus musculus, UniProt Q9R1E6); test: LPA plasma concentration in naïve mice after autotaxin inhibitor; assay type: in vivo; conditions: i.p. 30 min before plasma sampling
T1 construct: from tissue; host or cells: living naïve mice, plasma sampled
Method: Quantitative LPA analysis was performed with liquid chromatography-electrospray ionization-tandem mass spectrometry (LC-ESI-MS/MS) with a hybrid triple quadrupole-ion trap QTrap 5500 mass spectrometer (AB Sciex, Germany) as described without knowledge of clinical data or treatment groups. Briefly, 2 cycles of liquid-liquid extraction of LPAs were done with 1-buthanol after adding the internal standard LPA17:0 (50 μl sample, 20 μl internal standard in 500 μl 1-butanol). The combined organic phases were dried under a gentle stream of nitrogen at 45 °C and subsequently re-dissolved in 200 μl methanol. A C18 column (Mercury 20 x 2 mm, 3 μm, 100 Å) and precolumn were used for chromatographic separation. A linear gradient was employed at a flow rate of 400 μl/min. Mobile phase A was water with ammonium formate 50 mM and formic acid (100:0.2, v/v) and mobile phase B acetonitrile/formic acid (100:0.1, v/v). The mass spectrometer operated in the negative ion mode and used multiple reaction monitoring (MRM). The mass transitions were m/z 409 → 79 (LPA 16:0), m/z 437 → 153 (LPA 18:0), m/z 431 → 79 (LPA 18:3) and m/z 457 → 153 (LPA 20:4) all with a dwell time of 50 ms. The internal standard method was used for quantification with Analyst Software V1.5 (Applied Biosystems, Germany). The calibration curve was linear over the range of 0.1–500 ng/ml and accuracy was >95%.

[3] = Plasma concentration time courses and basic pharmacokinetics of the LPAR2 agonist (LC-MS/MS); assay type: in vivo, SJL/J mice
Method: (§2) Female SJL/J mice (Envigo, Germany), aged 10–12 weeks at immunization were used for study of relapsing-remitting EAE and female TCR^1640 mice for spontaneous RR-EAE [45]. Female C57BL6/J mice and LPAR2^−/− mice and LPAR2^+/+ littermates were used for the study of primary progressive EAE. LPAR2^−/− mice have a mixed C57BL6/J x Sv129 background with about 25% Sv129. Mice were housed at 3–5 mice per cage at constant room temperature (21 ± 1 °C) under a regular 12 h light/dark schedule. Food and water were available ad libitum. Animals were treated orally via the drinking water with FTY720 (fingolimod) at 0.5 mg/kg/d starting 3 days after immunization for preventive treatment. Monoclonal anti-Itga4 antibody treatment (natalizumab) in SJL/J mice consisted in 3 intraperitoneal injections (1x200 μg, 2x 150 μg) on day 11, 14 and 19. The LPAR2 agonist GRI 977143 was administered perorally in cornflakes soaked with 10% sucrose/10% DMSO in water with 100 μg/mouse/d of the drug starting 3d after immunization. Control animals received the respective vehicle. Oral bioavailability (F) of the LPAR2 agonist and basic kinetics were assessed by LC-MS/MS analysis of plasma concentrations. Tmax and Cmax were directly taken from the plasma concentration time courses. AUCs were calculated according to the linear trapezoidal rule. The clearance was calculated as Cl = Dose*F/AUCs and the half-life, t1/2 = ln2/λ, where λ is the terminal decay constant.

LPAR2 [4] = biological target: T2, LPAR2 (Homo sapiens, UniProt Q9HBW0); test: LPA receptor activation, aequorin-GFP calcium luminescence in COS-1 cells co-transfected with Gα15; assay type: cell-based
T2 construct: plasmids containing the indicated receptor cDNA or control (empty vector, mock); expressed in transfected cells; host or cells: COS-1
T2 sequence (Q9HBW0 whole entry): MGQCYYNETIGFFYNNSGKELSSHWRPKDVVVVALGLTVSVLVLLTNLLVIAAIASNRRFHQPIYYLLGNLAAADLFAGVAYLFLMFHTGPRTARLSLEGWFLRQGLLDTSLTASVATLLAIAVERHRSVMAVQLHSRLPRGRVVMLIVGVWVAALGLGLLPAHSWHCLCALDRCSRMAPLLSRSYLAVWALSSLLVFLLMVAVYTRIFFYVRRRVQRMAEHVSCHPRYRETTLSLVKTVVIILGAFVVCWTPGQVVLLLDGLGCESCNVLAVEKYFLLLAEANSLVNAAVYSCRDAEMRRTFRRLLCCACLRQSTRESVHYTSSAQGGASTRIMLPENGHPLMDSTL
Method: as §1

LPAR1, 2, 3 or 4 [5] = biological target: T3, LPAR1, 2, 3 or 4 (Homo sapiens, UniProt Q9HBW0); test: LPA receptor activation panel in COS cells with heterologous expression of LPAR1, 2, 3 or 4 plus Gα15, mock controls; assay type: cell-based; conditions: COS cells with heterologous expression of LPAR1, 2, 3 or 4
T3 construct: expressed in transfected cells; host or cells: COS-1
T3 sequence (Q9HBW0 whole entry): as above
Method: as §1

RR-EAE SJL/J mice = test: Relapsing-remitting EAE (PLP139-151/CFA/PTX immunization), clinical scores, body weight, spinal cord immunofluorescence; assay type: in vivo
Method: as §2
C57BL6/J and LPAR2 mice were immunized according to a standard protocol using the Hooke Kit™ MOG35-55/CFA emulsion PTX (EK-2110, Hooke Labs, St Lawrence, MA), which contains 200 μg myelin oligodendrocyte glycoprotein (MOG) 35–55 emulsified in 200 μl Complete Freund’s Adjuvant (CFA). The emulsion was injected subcutaneously at two sites followed by two intraperitoneal (i.p.) injections of 200 ng pertussis toxin (PTX) in phosphate buffered saline (PBS), the first 1–2 h after MOG35-55, and the second 24 h later. SJL mice were immunized using Hooke Kit™ PLP139-151/CFA emulsion PTX (EK-2120), which contains 200 μg myelin proteolipid protein (PLP) 139–151 in 200 μl CFA (Hooke Labs, US). Injections of the emulsion and PTX were done as described for C57BL6 mice.
EAE scores were assessed daily to evaluate the severity and extent of motor function deficits. Score 0, normal motor functions; score 0.5, distal paralysis of the tail; score 1, complete tail paralysis; score 1.5, mild paresis of one or both hind legs; score 2, severe paresis of hind legs; score 2.5, complete paralysis of one hind leg; score 3, complete paralysis of both hind legs; score 3.5, complete paralysis of hind legs and paresis of one front leg. Serum and tissues were sampled after the second peak, 35–36 days after immunization.
Mice were terminally anaesthetized with isoflurane and cardially perfused with cold 0.9% NaCl, followed by 4% paraformaldehyde (PFA) in 1x PBS for fixation. […]
Tiled images of individual sections were captured with equal filter and acquisition parameters to assure comparability independent of genotype or treatment and subsequently stitched to cover the complete ventral horn of the spinal cord. Iba1+ and CD11b + microglia/macrophages in the gray matter and white matter were quantified using the particle counter plugin of FIJI ImageJ. […] Three or more non-overlapping images of 3 mice were analyzed per group.

LPAR2 [6] = biological target: T2, LPAR2; parameters: method as in not given; conditions: reported value; ref not given; cited from earlier work
serum LPAs [7] = test: Serum LPA concentrations (LC-MS/MS) in medication subgroups of MS patients; assay type: in vivo, human; conditions: MS patients on prophylactic treatment vs no medication, beta interferon or other drugs
Source text: Human samples and data were available from an observational cross-sectional investigation of 102 multiple sclerosis patients (31 men, 71 women, demographic data Table 1) consecutively recruited from outpatients and inpatients of the Department of Neurology of the Goethe University Hospital Frankfurt, Germany. Data and blood collection was part of the local bio-banking project (Neurological Department of the Goethe University, Frankfurt), adhered to the Declaration of Helsinki and was approved by the Ethics Committees of the Medical Faculty of the Goethe University. Cerebrospinal fluid samples were available from a previous study including 20 MS patients and 10 control patients with other non-inflammatory neurologic diseases. For long-term time course analyses additional 15 patients were recruited and observed up to 3.5 years. […]
(§3) Quantitative LPA analysis was performed with liquid chromatography-electrospray ionization-tandem mass spectrometry (LC-ESI-MS/MS) with a hybrid triple quadrupole-ion trap QTrap 5500 mass spectrometer (AB Sciex, Germany) as described without knowledge of clinical data or treatment groups. […] The internal standard method was used for quantification with Analyst Software V1.5 (Applied Biosystems, Germany). […]

serum LPAs [8] = test: Serum LPA concentrations (LC-MS/MS) in treated SJL/J EAE mice; assay type: in vivo; conditions: 35 days after immunization, vs vehicle treated EAE mice
Method: as §2, with “Monoclonal anti-Itga4 antibody treatment (natalizumab) in SJL/J mice consisted in 3 intraperitoneal injections (1x200 μg, 2x 150 μg) on day 11, 14 and 19. The LPAR2 agonist GRI 977143 was administered perorally in cornflakes soaked with 10% sucrose/10% DMSO in water with 100 μg/mouse/d of the drug starting 3d after immunization. Control animals received the respective vehicle.” left out, “Tmax and Cmax were directly taken from the plasma concentration time courses.” left out, “constant. […]” for “constant.”
as §3

autotaxin [9] = biological target: T1, autotaxin; test: Autotaxin lyso-PLD activity ex vivo in primary splenocytes (C17-LPC to C17:0-LPA conversion); assay type: cell-based; conditions: splenocytes from treated EAE mice
Method: The spleens were removed and collected in a sterile wire mesh with 40 μm pore size over a Petri dish half filled with RPMI 1640 media and were gently pressed through the mesh using a 5 ml syringe plunger. The mesh was rinsed over the Petri dish with additional media to remove remaining cells. Disaggregated cells were transferred to a 15 ml Falcon tube and centrifuged at 2,000 rpm for 5 min and washed 2x in RPMI. The cell pellet was resuspended in RPMI, treated with erythrocyte lysis buffer for 10 min at room temperature, followed by centrifugation and resuspension in full medium (RPMI 1640 + 10% FBS + 1% Pen/Strep). Cells were plated in 6-well plates at 3x10^6/2 ml per well. Growth was stimulated with concanavalin A at 1 μg/ml. Cells were kept in an incubator at 37 °C, 95% humidity and 5% CO2 atmosphere and assays were performed after 2d in culture.
The lyso-PLD activity of ATX was measured in primary splenocytes of naïve and EAE mice. Cells were incubated for 2 h in 1.1 ml serum free RPMI 1640 medium and then stimulated for another 2 h with PMA 50 ng/ml and ionomycin 500 ng/ml in serum free medium before the autotaxin substrate, C17-LPC was added (100 μM in 1 μl in DMSO). […] C17-LPC is converted into the unnatural C17:0-LPA, which was analysed in supernatants and crude cell extracts by LC-MS/MS as described above. […]

LPAR1 = biological target: T4, LPAR1 (Homo sapiens, UniProt Q92633); test: LPA receptor activation, aequorin-GFP calcium luminescence in COS-1 cells co-transfected with Gα15; assay type: cell-based; conditions: compared with other LPAs
T4 construct: plasmids containing the indicated receptor cDNA or control (empty vector, mock); expressed in transfected cells; host or cells: COS-1
T4 sequence (Q92633 whole entry): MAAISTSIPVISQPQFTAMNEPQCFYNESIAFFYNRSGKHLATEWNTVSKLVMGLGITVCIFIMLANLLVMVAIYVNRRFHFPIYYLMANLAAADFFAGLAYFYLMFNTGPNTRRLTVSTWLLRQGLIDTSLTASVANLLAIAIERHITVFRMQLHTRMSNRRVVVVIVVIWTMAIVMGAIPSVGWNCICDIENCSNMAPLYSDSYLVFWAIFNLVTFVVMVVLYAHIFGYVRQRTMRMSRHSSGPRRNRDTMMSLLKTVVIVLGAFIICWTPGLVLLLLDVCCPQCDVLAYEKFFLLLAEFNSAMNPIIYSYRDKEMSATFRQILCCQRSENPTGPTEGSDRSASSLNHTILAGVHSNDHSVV
Method: as §1

autotaxin [10] = test system: autotaxin; parameters: method as in PMID 19215222; conditions: cited from earlier work

Compound: CCCCCCCCCCCCCCCCCCOC[C@@H](O)COP(=O)(O)O [octadecyl-LPA]
- LPAR activation (agonist activity) (LPAR1, 2, 3 or 4 [1]): no effects

Compound: O=C(CCN1CCN(C(=O)OCc2cc(Cl)cc(Cl)c2)CC1)c1ccc2[nH]c(=O)oc2c1 [PF8380]
- LPA plasma concentration (autotaxin [2]): mainly reduced unsaturated LPAs

Compound: O=C(O)c1ccccc1SCCCN1C(=O)c2cccc3cccc(c23)C1=O [GRI 977143]
- AUC ([3]; calculated from i.p. data): 4260 ng·h/mL
- CL ([3]; calculated from i.p. data): 23.5 mL/h
- Vd ([3]; calculated from i.p. data): 27.3 mL
- Tmax ([3]; plasma, after i.p. administration, SJL/J mice): 10 min
- EC50 (LPAR2 [4]; LPAR2 agonist, COS-1 cells): ~1000 nM
- LPAR2 specificity (LPAR1, 2, 3 or 4 [5]): confirmed the LPAR2 specificity
- clinical EAE scores (RR-EAE SJL/J mice; 100 μg/mouse/d p.o. starting 3 d after immunization up to 35 d, vs vehicle): significantly lower clinical EAE scores
- body weight (RR-EAE SJL/J mice; 100 μg/mouse/d p.o. starting 3 d after immunization, vs vehicle): therapeutic efficacy was also evident
- infiltration of the white matter of the lumbar spinal cord with myeloid cells (CD11b positive particles) (RR-EAE SJL/J mice; 100 μg/mouse/d p.o., 36 days after immunization, vs vehicle): much reduced; also recorded: significantly reduced
- EC50 (LPAR2 [6]): 1000 to 3000 nM

Compound: natalizumab: alpha-4 integrin (VLA4) targeting monoclonal antibody
- clinical EAE scores (RR-EAE SJL/J mice; 3 i.p. injections at d11 (200 μg), d14, d19 (150 μg)): reduced the clinical scores
- LPA concentrations in serum (serum LPAs [7]): significantly lower
- LPA serum concentration (serum LPAs [8]): significantly lower LPA levels
- maximum stimulation effect of PMA/Ionomycin on ATX activity (autotaxin [9]): significantly reduced

Compound: CCCCCCCC/C=C\CCCCCCCC(=O)OC[C@@H](O)COP(=O)(O)O [LPA18:1, 1-oleoyl-LPA]
- Emax (LPAR1): highest Emax values
- Emax (LPAR2 [4]; compared with other LPAs): highest Emax values
- specificity (response of mock transduced cells) (LPAR1, 2, 3 or 4 [1]; mock-Gα15 transduced cells as control): most specific

Compound: CCCCCCCCCCCCCCCCOC[C@@H](O)COP(=O)(O)O [hexadecyl-LPA]
- LPAR activation (agonist activity) (LPAR1, 2, 3 or 4 [1]): no effects

Compound: CCCCCCCCc1ccc(CCC(N)(CO)CO)cc1 [fingolimod]
- clinical EAE scores (RR-EAE SJL/J mice; fingolimod 0.5 mg/kg/day in drinking water from 3 d after immunization): only minor effects
- LPA concentrations in serum (serum LPAs [7]): significantly lower
- LPA serum concentration (serum LPAs [8]): additional LPA lowering effect
- autotaxin inhibition (autotaxin [10]): slow acting autotaxin inhibitor
